Results taken from article PMC7252619 (PLoS ONE, 2020).
Like-named read-outs stand apart in the source and are kept apart here. One block for each compound: values may come before it.

Legend:
human CD19+ B cells = assay: B-cell assay: IgG production of ODN2006-stimulated primary B cells (AlphaLISA); assay type: cell-based
Procedure: (§1) Compounds were prepared as 10 mM stock solutions in dimethylsulfoxide (DMSO)and were tested at 50-10-1-0.1-0.01 and 0.001 μM in the 4 assays.
Blood samples of healthy volunteers were collected at the Red Cross of Mechelen, Belgium.
Highly purified naive peripheral human B cells were separated from fresh human PBMCs on magnetic columns by positive selection using CD19 magnetic beads according to the manufacturer’s instructions (MACS Miltenyi Biotech, Leiden, The Netherlands). […] Freshly isolated human CD19+ B cells were then plated at 25 000 cells per well in a 384-well plate (Perkin Elmer, Zaventem, Belgium) in 55 μL in DMEM medium containing 10% FCS and 5 μg/mL gentamicin sulphate. After 7 days of stimulation with 0.1 μM ODN2006 (InvivoGen, Toulouse, France), supernatant was taken for analysis of IgG using the AlphaLISA human IgG kit according to the manufacturer’s instructions (Perkin Elmer, Zaventem, Belgium).

[1] = tested on: human PBMCs (responder cells) with RPMI1788 stimulator cells; assay: Mixed Lymphocyte Reaction (MLR, T cell assay), 3H-thymidine incorporation; assay type: cell-based; details: for Selectivity Index (SI) MLR/B-cell: ratio of IC50 values
Procedure: In order to test the efficacy and selectivity of the hit compounds on B-cells, 4 assays were performed: B-cell assay, Mixed Lymphocyte Reaction (MLR), WST-1 assay on RPMI1788 cells (B-cell line) and cytotoxicity WST-1 assay on Jurkat cells (T-cell line). Compounds were prepared as 10 mM stock solutions in dimethylsulfoxide (DMSO)and were tested at 50-10-1-0.1-0.01 and 0.001 μM in the 4 assays.
Blood samples of healthy volunteers were collected at the Red Cross of Mechelen, Belgium. Each donor consents to the use of their blood for research purposes. […] The human B cell line RPMI1788 (American Type Culture Collection, USA) and the human T cell line Jurkat (European Collection of Cell Cultures, ECACC, England) were maintained in RPMI1640 culture medium (BioWhittaker®, Lonza, Verviers, Belgium) containing 10% foetal calf serum (FCS, HyClone® Thermo Scientific, United Kingdom) and 5 μg/mL gentamicin sulphate (BioWhittaker®, Lonza, Verviers, Belgium) at 37°C and 5% CO2.
MLR assay (T cell assay): Freshly isolated human PBMCs (responder cells) were resuspended in RPMI1640 medium containing 10% FCS and 5nμg/mL gentamicin sulphate. RPMI1788 cells (stimulator cells) were inactivated by treatment with mitomycin C (Kyowa®, Takeda Belgium, Brussels, Belgium) for 20 min at 37°C, washed and finally suspended in culture medium. An amount of 100 μL of each cell suspension was mixed with 20 μL of diluted compound. The mixed cells were cultured at 37°C for 6 days in 5% CO2. DNA synthesis was assayed by the addition of 10 μCi (methyl-3H) thymidine (Perkin Elmer, Zaventem, Belgium) per well during the last 18 h in culture. Thereafter, the cells were harvested on glass filter paper and the counts per minute determined in a liquid scintillation counter (TopCount, Perkin Elmer, Zaventem, Belgium).

[2] = WST-1 cytotoxicity assay on RPMI1788 cells (B-cell line); assay type: cell-based, human; details: human, RPMI1788 cells (B-cell line), mean of 4 independent measures, read-out: Cytotoxicity, WST-1 RPMI 1788 IC 50 (µM) Mean
Procedure: as §1
(§2) The human B cell line RPMI1788 (American Type Culture Collection, USA) and the human T cell line Jurkat (European Collection of Cell Cultures, ECACC, England) were maintained in RPMI1640 culture medium (BioWhittaker®, Lonza, Verviers, Belgium) containing 10% foetal calf serum (FCS, HyClone® Thermo Scientific, United Kingdom) and 5 μg/mL gentamicin sulphate (BioWhittaker®, Lonza, Verviers, Belgium) at 37°C and 5% CO2.
(§3) WST-1 assays on RPMI-1788 cells and Jurkat cells were performed as follows: 20 μL of test compound dilution were added to each well containing exponential growing cells and the plates were incubated for 48 h at 37°C, 5% CO2. Untreated cells and positive control (1% triton X-100, for the last 15 min) served as reference for maximum and minimum viability. At the end of incubation 100 μL of supernatant were removed and replaced by 10 μL of WST-1 solution (Cell Proliferation Reagent WST-1, Roche Applied Science).

[3] = WST-1 cytotoxicity assay on Jurkat cells (T-cell line); assay type: cell-based, human; details: human, Jurkat cells (T-cell line), mean of 4 independent measures, read-out: Cytotoxicity, WST-1 Jurkat IC 50 (µM) Mean
VEGFR2 [4] = biological target: T1, VEGFR2 (Homo sapiens, UniProt P35968); assay: Kinase activity test (ReactionBiology), % enzyme activity relative to DMSO; assay type: biochemical; set-up: purchased ReactionBiology; details: VEGFR2;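 further: VEGFR2 was one member of a ten-kinase screening panel testing marketed FDA-approved drugs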
T1 sequence (P35968 20-1356): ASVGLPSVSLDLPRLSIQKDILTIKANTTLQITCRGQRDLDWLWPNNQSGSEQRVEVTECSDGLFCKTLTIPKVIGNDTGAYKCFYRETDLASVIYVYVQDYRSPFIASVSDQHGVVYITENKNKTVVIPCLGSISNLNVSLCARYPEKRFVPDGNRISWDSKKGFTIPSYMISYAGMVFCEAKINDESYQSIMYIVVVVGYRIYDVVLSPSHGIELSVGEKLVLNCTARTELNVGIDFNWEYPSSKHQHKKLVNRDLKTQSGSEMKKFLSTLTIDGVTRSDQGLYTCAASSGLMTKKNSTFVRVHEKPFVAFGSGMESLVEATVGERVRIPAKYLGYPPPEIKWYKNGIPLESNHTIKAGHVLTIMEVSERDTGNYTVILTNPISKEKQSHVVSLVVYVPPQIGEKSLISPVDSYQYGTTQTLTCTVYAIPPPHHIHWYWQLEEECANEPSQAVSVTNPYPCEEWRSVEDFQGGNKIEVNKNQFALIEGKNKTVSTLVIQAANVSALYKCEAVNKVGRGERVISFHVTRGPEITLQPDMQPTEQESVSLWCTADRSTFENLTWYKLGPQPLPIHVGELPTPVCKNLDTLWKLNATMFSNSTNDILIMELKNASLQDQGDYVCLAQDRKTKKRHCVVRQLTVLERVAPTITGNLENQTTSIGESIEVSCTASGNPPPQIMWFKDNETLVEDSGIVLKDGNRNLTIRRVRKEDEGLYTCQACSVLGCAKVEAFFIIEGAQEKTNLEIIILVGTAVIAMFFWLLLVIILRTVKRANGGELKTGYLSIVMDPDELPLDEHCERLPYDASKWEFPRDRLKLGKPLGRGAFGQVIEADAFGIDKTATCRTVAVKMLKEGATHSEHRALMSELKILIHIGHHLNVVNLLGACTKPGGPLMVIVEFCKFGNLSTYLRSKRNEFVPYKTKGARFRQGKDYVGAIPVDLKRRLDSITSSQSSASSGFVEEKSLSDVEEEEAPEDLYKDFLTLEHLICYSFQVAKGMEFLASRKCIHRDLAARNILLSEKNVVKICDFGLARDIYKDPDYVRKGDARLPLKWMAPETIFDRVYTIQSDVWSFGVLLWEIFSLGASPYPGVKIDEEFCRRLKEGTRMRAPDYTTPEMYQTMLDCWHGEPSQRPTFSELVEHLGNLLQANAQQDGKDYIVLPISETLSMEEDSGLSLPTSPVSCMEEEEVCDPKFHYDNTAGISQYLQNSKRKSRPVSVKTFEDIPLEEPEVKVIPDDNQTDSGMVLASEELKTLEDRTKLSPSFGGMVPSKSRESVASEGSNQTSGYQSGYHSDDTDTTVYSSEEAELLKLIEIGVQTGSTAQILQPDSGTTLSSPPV

VEGFR2 [5] = biological target: T1, VEGFR2; assay: KINOMEscan competition binding assay, dose response
MLK4 = biological target: T2, MLK4 (Homo sapiens, UniProt Q5TCX8); assay type: biochemical; details: for % Enzyme Activity (relative to DMSO controls), Data 1: replicate Data 1; for % Enzyme Activity (relative to DMSO controls), Data 2: replicate Data 2
T2 construct: purchased ReactionBiology
T2 sequence (Q5TCX8 whole entry): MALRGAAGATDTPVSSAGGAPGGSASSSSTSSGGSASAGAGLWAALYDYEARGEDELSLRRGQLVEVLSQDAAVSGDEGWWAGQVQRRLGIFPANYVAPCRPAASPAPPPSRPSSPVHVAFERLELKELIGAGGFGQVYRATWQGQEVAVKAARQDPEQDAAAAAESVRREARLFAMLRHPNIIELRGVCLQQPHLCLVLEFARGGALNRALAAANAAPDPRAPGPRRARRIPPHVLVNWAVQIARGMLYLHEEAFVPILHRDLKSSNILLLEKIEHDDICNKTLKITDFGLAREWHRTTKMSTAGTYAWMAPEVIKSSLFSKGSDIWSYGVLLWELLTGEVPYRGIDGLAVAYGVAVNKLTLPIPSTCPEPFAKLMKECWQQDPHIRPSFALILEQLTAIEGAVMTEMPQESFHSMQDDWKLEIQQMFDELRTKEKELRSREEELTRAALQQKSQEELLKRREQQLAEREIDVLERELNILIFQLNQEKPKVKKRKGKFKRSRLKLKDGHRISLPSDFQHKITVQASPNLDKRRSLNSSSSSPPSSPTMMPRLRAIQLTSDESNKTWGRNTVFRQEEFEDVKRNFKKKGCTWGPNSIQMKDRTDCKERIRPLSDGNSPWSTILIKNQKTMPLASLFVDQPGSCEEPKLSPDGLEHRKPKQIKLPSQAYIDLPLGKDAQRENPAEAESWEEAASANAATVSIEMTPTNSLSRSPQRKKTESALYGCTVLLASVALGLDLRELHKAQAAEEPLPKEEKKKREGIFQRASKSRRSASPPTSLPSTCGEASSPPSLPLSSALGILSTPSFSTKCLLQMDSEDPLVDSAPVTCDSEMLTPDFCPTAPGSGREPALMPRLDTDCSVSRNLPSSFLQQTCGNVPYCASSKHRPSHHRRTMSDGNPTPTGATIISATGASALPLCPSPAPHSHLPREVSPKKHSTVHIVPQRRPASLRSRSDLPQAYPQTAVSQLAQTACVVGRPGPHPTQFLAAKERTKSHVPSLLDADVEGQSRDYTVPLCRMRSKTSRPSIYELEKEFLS

RPMI1788 cells = assay: WST-1 cytotoxicity assay on RPMI1788 cells (B-cell line); assay type: cell-based, human; details: 48 h; mean of 4 independent measures; read-out: Cytotoxicity, WST-1 RPMI 1788 IC 50 (µM) Mean
Procedure: as §1, §2, §3

Jurkat cells = assay: WST-1 cytotoxicity assay on Jurkat cells (T-cell line); assay type: cell-based, human; details: 48 h; mean of 4 independent measures; read-out: Cytotoxicity, WST-1 Jurkat IC 50 (µM) Mean
NEK2 = biological target: T3, NEK2 (Homo sapiens, UniProt P51955); assay: Kinase activity test (ReactionBiology), % enzyme activity relative to DMSO; assay type: biochemical;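 further: FDA-approved drugs chosen by structure-based repositioning, each screened at 10 or 1 µM for kinase activity, expressed as percent of DMSO controls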
T3 construct: purchased ReactionBiology
T3 sequence (P51955 1-445): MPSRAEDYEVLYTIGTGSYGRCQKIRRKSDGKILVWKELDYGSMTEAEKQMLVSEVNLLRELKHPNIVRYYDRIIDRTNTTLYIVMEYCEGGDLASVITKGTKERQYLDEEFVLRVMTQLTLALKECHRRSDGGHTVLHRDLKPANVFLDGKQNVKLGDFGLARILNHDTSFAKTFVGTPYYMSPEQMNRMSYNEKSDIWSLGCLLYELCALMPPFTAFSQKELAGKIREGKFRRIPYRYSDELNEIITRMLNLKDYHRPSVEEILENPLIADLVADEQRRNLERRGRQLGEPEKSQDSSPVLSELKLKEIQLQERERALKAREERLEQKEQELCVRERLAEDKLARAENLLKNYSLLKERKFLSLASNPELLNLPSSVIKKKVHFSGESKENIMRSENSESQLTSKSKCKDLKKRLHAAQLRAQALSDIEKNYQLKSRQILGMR

CK1d = biological target: T4, CK1d (Homo sapiens, UniProt P48730); assay: as above; assay type: biochemical; details: CK1d
T4 construct: purchased ReactionBiology
T4 sequence (P48730 whole entry): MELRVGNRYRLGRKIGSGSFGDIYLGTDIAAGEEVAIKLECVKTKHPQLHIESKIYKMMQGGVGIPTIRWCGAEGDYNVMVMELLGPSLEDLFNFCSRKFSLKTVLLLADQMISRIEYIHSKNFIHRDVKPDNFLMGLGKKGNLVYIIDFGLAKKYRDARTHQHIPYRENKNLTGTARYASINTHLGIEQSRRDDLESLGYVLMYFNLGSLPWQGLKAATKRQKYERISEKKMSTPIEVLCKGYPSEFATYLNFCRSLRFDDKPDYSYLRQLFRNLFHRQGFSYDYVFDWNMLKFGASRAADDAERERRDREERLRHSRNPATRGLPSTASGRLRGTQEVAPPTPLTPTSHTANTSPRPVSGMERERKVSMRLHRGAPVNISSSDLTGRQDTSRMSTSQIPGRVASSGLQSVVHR

CDC7 = biological target: T5, CDC7 (Homo sapiens, UniProt O00311); assay: as above; assay type: biochemical;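 further: each drug screened at both 10 µM and 1 µM across a ten-kinase panel, activity expressed as percent of DMSO control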
T5 construct: purchased ReactionBiology
T5 sequence (O00311 whole entry): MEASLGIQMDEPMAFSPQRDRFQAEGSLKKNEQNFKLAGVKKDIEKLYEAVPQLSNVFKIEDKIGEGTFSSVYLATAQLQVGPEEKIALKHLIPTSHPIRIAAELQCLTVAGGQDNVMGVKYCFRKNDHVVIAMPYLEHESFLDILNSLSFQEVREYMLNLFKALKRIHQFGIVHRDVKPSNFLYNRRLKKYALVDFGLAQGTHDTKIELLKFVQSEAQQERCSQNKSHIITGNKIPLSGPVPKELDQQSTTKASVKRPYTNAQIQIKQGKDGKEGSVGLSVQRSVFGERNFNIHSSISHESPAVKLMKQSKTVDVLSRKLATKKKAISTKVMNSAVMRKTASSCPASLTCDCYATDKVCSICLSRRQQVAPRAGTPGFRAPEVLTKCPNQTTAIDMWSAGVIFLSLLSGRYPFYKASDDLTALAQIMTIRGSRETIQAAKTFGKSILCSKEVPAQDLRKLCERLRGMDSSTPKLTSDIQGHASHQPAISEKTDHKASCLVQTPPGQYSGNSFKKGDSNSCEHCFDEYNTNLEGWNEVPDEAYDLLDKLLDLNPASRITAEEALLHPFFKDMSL
T5 sequence (Q9UBU7 whole entry partner): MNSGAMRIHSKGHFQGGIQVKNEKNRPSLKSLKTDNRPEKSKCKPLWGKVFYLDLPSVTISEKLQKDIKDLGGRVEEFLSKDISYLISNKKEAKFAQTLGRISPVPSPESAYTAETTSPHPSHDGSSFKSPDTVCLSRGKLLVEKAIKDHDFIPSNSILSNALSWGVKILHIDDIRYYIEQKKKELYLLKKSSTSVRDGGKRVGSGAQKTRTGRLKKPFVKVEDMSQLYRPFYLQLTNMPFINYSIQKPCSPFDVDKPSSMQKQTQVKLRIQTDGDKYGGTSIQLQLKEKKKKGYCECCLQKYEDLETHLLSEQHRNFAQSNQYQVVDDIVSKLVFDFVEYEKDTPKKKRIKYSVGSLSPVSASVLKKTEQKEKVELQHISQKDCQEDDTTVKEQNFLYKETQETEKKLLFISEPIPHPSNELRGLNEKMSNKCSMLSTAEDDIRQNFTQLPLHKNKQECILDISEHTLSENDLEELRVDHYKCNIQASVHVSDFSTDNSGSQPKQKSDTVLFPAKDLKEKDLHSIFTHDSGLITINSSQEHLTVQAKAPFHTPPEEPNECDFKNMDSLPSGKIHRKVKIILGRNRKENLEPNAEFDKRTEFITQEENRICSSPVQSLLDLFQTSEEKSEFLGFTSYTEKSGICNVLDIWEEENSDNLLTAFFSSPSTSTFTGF

EPHB4 = biological target: T6, EPHB4 (Homo sapiens, UniProt P54760); assay: as above; assay type: biochemical; details: EPHB4;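 further: EPHB4 was one of ten selected kinases in the screening panel, with enzyme activity expressed as a percentage of DMSO controls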
T6 construct: purchased ReactionBiology
T6 sequence (P54760 16-987): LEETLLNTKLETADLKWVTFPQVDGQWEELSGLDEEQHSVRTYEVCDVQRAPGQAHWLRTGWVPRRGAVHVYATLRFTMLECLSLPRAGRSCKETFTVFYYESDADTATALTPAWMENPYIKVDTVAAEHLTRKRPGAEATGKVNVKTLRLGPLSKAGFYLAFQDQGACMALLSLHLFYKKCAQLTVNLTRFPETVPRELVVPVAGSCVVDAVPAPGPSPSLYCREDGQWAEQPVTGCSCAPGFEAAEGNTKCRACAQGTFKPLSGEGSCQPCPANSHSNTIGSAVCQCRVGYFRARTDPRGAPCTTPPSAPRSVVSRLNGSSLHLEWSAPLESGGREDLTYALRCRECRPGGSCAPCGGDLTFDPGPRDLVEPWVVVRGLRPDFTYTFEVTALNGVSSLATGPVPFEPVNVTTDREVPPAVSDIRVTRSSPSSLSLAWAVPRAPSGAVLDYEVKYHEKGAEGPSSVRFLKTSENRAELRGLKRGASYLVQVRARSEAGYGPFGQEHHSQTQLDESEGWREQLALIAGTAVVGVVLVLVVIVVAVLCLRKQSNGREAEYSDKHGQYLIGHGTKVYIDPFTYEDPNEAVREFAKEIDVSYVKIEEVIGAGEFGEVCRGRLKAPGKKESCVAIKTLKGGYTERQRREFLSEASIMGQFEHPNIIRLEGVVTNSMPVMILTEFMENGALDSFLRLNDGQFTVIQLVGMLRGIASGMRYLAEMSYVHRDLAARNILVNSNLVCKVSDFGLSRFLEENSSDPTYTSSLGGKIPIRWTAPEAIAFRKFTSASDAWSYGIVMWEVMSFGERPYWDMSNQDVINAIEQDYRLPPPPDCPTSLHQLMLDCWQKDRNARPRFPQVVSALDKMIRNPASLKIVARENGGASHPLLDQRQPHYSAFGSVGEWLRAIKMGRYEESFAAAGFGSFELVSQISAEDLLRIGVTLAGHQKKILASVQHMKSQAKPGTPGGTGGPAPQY

MAP2K2 = biological target: T7, MAP2K2 (Homo sapiens, UniProt P36507); assay: as above; assay type: biochemical
T7 construct: purchased ReactionBiology
T7 sequence (P36507 whole entry): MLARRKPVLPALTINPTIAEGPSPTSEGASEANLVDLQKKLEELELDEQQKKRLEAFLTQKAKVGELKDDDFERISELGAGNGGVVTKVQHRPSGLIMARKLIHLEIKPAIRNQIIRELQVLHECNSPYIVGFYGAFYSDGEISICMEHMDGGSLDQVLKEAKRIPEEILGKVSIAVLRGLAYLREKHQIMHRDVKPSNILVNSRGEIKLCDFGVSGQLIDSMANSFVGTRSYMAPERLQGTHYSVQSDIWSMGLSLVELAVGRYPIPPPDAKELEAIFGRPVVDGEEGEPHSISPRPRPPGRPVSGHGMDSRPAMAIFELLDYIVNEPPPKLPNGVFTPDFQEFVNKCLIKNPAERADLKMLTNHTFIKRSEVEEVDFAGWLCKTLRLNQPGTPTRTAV

[6] = Homo sapiens, B-cell, 168 h, IgG production, ODN2006 0.1 μM, 7 days, mean of 4 independent experiments, read-out: B-cell IC50
[7] = 1 uM, Average, read-out: % Enzyme Activity (relative to DMSO controls), Average
[8] = 1 uM, replicate Data 1, read-out: % Enzyme Activity (relative to DMSO controls), Data 1
[9] = 1 uM, replicate Data 2, read-out: % Enzyme Activity (relative to DMSO controls), Data 2
[10] = 10 uM, Average, read-out: % Enzyme Activity (relative to DMSO controls), Average
[11] = 10 uM, replicate Data 1, read-out: % Enzyme Activity (relative to DMSO controls), Data 1
[12] = 10 uM, replicate Data 2, read-out: % Enzyme Activity (relative to DMSO controls), Data 2
[13] = read-out: % Enzyme Activity (relative to DMSO controls), Average
[14] = read-out: % Enzyme Activity (relative to DMSO controls), Data 1
[15] = read-out: % Enzyme Activity (relative to DMSO controls), Data 2
[16] = read-out: % Enzyme activity at 1μM
[17] = read-out: % Enzyme activity at 10μM
[18] = Average, read-out: % Enzyme Activity (relative to DMSO controls), Average
[19] = replicate Data 1, read-out: % Enzyme Activity (relative to DMSO controls), Data 1
[20] = replicate Data 2, read-out: % Enzyme Activity (relative to DMSO controls), Data 2

SMILES: Cc1ccc(C(=O)Nc2ccc(S(=O)(=O)O)c3cc(S(=O)(=O)O)cc(S(=O)(=O)O)c23)cc1NC(=O)c1cccc(NC(=O)Nc2cccc(C(=O)Nc3cc(C(=O)Nc4ccc(S(=O)(=O)O)c5cc(S(=O)(=O)O)cc(S(=O)(=O)O)c45)ccc3C)c2)c1 [Suramin, reference compound]
IC50 (human CD19+ B cells; [6]): 35.2 µM | IC50 ([1]; Homo sapiens, RPMI-1788, mean of 4 independent measures, read-out: T-cell efficacy, MLR IC 50 (µM) Mean): 29.8 µM | Selectivity Index (SI) MLR/B-cell [1]: 0.85 | IC50 at 48 h [2]: > 50 µM | IC50 at 48 h [3]: > 50 µM | remaining activity at 1 µM (VEGFR2 [4]; [7]): 72.7% | remaining activity at 1 µM (VEGFR2 [4]; [8]): 73.6% | remaining activity at 1 µM (VEGFR2 [4]; [9]): 71.8% | remaining activity at 10 µM (VEGFR2 [4]; [10]): 6.48% | remaining activity at 10 µM (VEGFR2 [4]; [11]): 7.02% | remaining activity at 10 µM (VEGFR2 [4]; [12]): 5.94% | remaining activity at 1 µM (VEGFR2 [4]; compound 1μM, relative to DMSO controls, read-out: % Enzyme activity at 1μM): 72.7% | remaining activity at 10 µM (VEGFR2 [4]; compound 10μM, relative to DMSO controls, read-out: % Enzyme activity at 10μM): 6.48% | Kd (VEGFR2 [5]): 25 µM

SMILES: CC(=O)Nc1nnc(S(N)(=O)=O)s1 [Acetazolamide]
% Enzyme Activity (relative to DMSO controls), Average (MLK4; 1 uM): 106.03% | % Enzyme Activity (relative to DMSO controls), Data 1 (MLK4; 1 uM): 105.08% | % Enzyme Activity (relative to DMSO controls), Data 2 (MLK4; 1 uM): 106.98% | % Enzyme Activity (relative to DMSO controls), Average (MLK4; 10 uM): 98.49% | % Enzyme Activity (relative to DMSO controls), Data 1 (MLK4; 10 uM): 99.01% | % Enzyme Activity (relative to DMSO controls), Data 2 (MLK4; 10 uM): 97.97%

IC50 (human CD19+ B cells; mean of 4 independent measures, read-out: B-cell efficacy, B cell IC 50 (µM) Mean): 0.723 µM
SMILES: COc1c(C)c2c(c(O)c1C/C=C(\C)CCC(=O)OCCN1CCOCC1)C(=O)OC2 [Mycophenolate Mofetyl]
IC50 ([1]; mean of 4 independent measures, read-out: T-cell efficacy, MLR IC 50 (µM) Mean): 0.121 µM | IC50 (RPMI1788 cells): 0.487 µM | IC50 (Jurkat cells): 0.552 µM

SMILES: Oc1cc(Cl)ccc1Oc1ccc(Cl)cc1Cl [Triclosan, reference compound]
remaining activity at 1 µM (NEK2; [13]): 99.2% | remaining activity at 10 µM (NEK2; [13]): 64.6% | remaining activity at 1 µM (NEK2; [14]): 98.5% | remaining activity at 10 µM (NEK2; [14]): 68.9% | remaining activity at 1 µM (NEK2; [15]): 99.8% | remaining activity at 10 µM (NEK2; [15]): 60.4% | remaining activity at 1 µM (NEK2; [16]): 99.2% | remaining activity at 10 µM (NEK2; [17]): 64.6% | remaining activity at 1 µM (CK1d; [18]): 96.6% | remaining activity at 1 µM (CK1d; [19]): 94.8% | remaining activity at 1 µM (CK1d; [20]): 98.3% | remaining activity at 10 µM (CK1d; [18]): 96.9% | remaining activity at 10 µM (CK1d; [19]): 97.8% | remaining activity at 10 µM (CK1d; [20]): 96% | remaining activity at 1 µM (CDC7; [13]): 70.5% | remaining activity at 10 µM (CDC7; [13]): 65.4% | remaining activity at 1 µM (CDC7; [14]): 68.2% | remaining activity at 10 µM (CDC7; [14]): 71.2% | remaining activity at 1 µM (CDC7; [15]): 72.7% | remaining activity at 10 µM (CDC7; [15]): 59.7% | remaining activity at 1 µM (CDC7; [16]): 70.5% | remaining activity at 10 µM (CDC7; [17]): 65.4% | remaining activity at 1 µM (EPHB4; [18]): 100% | remaining activity at 1 µM (EPHB4; [19]): 101% | remaining activity at 1 µM (EPHB4; [20]): 99.9% | remaining activity at 10 µM (EPHB4; [18]): 97.4% | remaining activity at 10 µM (EPHB4; [19]): 97.3% | remaining activity at 10 µM (EPHB4; [20]): 97.4% | remaining activity at 1 µM (MAP2K2; [13]): 97.6% | remaining activity at 10 µM (MAP2K2; [13]): 96% | remaining activity at 1 µM (MAP2K2; [14]): 95.3% | remaining activity at 10 µM (MAP2K2; [14]): 95% | remaining activity at 1 µM (MAP2K2; [15]): 99.8% | remaining activity at 10 µM (MAP2K2; [15]): 97.1% | IC50 (human CD19+ B cells; [6]): 20.9 µM | IC50 ([1]; Homo sapiens, RPMI-1788, read-out: T-cell efficacy, MLR IC 50 (µM) Mean): 34.3 µM | Selectivity Index (SI) MLR/B-cell [1]: 1.64 | IC50 at 48 h [2]: 27.7 µM | IC50 at 48 h [3]: 26.2 µM | remaining activity at 1 µM (VEGFR2 [4]; [7]): 111% | remaining activity at 1 µM (VEGFR2 [4]; [8]): 108% | remaining activity at 1 µM (VEGFR2 [4]; [9]): 114% | remaining activity at 10 µM (VEGFR2 [4]; [10]): 101% | remaining activity at 10 µM (VEGFR2 [4]; [11]): 103% | remaining activity at 10 µM (VEGFR2 [4]; [12]): 99.9%

SMILES: NCCC(O)(P(=O)(O)O)P(=O)(O)O [Pamidronate]
% Enzyme Activity (relative to DMSO controls), Average (MLK4; 1 uM): 79.13% | % Enzyme Activity (relative to DMSO controls), Data 1 (MLK4; 1 uM): 76.76% | % Enzyme Activity (relative to DMSO controls), Data 2 (MLK4; 1 uM): 81.5% | % Enzyme Activity (relative to DMSO controls), Average (MLK4; 10 uM): 78.77% | % Enzyme Activity (relative to DMSO controls), Data 1 (MLK4; 10 uM): 82.48% | % Enzyme Activity (relative to DMSO controls), Data 2 (MLK4; 10 uM): 75.06%
